# Target: Cdk4/CyclinD1 (Homo sapiens (Human), UniProt P11802)
# Assay: Cdk4 kinase inhibition assay with recombinant Cdk4/CyclinD1, Rb substrate, [33P]-ATP filter plate
# Assay type: biochemical
# Conditions: 25 μM ATP, read-out: Cdk 4 IC50
# Outline: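 Recombinant Cdk4/CyclinD1 or Cdk6/CyclinD3 phosphorylated Rb protein with [33P]-ATP for 1 h at room temperature. Protein was TCA-precipitated on filter plates and bound radioactivity counted. IC50 by nonlinear regression.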
# Chain of Cdk4/CyclinD1 (P11802 whole entry): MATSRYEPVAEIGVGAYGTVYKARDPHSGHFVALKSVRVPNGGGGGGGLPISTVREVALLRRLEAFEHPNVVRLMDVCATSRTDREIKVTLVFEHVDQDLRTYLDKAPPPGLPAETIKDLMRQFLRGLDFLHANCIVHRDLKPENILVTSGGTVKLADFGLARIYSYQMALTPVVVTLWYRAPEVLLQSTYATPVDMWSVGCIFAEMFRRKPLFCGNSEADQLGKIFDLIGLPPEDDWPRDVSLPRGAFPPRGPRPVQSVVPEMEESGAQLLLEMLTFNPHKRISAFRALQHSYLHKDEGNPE
# Chain of Cdk4/CyclinD1 (P24385 whole entry partner): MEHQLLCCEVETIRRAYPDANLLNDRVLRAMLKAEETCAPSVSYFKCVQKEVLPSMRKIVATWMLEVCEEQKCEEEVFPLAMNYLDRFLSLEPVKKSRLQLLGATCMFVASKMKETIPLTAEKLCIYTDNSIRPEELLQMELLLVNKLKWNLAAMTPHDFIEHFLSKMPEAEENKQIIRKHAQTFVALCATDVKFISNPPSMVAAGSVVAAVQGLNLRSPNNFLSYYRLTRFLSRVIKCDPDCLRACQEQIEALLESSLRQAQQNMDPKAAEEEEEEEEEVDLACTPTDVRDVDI
row,Structure (SMILES),IC50
1,"CN(C)C1CCN(c2ccc(Nc3ncc4c5ccncc5n([C@H]5CC[C@H](O)CC5)c4n3)nn2)CC1 [Example 287, Trans-4-(2-((6-(4-(dimethylamino)-1-piperidinyl)-3-pyridazinyl)amino)-9H-pyrido[4′,3′:4,5]pyrrolo[2,3-d]pyrimidin-9-yl)cyclohexanol]",123 nM
2,COCCn1c2cnccc2c2cnc(Nc3ccc(N4CCC(N(C)C)CC4)nn3)nc21 [Example 315],1380 nM
3,CC[C@H](C)n1c2cnccc2c2cnc(Nc3ccc(N4CCC(N(C)C)CC4)cn3)nc21 [Example 326],620 nM
4,CC[C@H](C)n1c2cnccc2c2cnc(Nc3ccc(N4CCC(N(C)C)CC4)nn3)nc21 [Example 327],630 nM
5,CC[C@H](C)n1c2cnccc2c2cnc(Nc3ccc(N4CCN[C@@H](C)C4)cn3)nc21 [Example 329],500 nM
6,CC[C@H](C)n1c2cnccc2c2cnc(Nc3ccc(N4CCNCC4)cn3)nc21 [Example 330],248 nM
7,CC[C@H](C)n1c2cnccc2c2cnc(Nc3ccc(N4CCNCC4)nn3)nc21 [Example 331],390 nM
8,CC[C@H](C)n1c2cnccc2c2cnc(Nc3ccc(N4CCN[C@@H](C)C4)nn3)nc21 [Example 333],300 nM
9,CC[C@H](C)n1c2cnccc2c2cnc(Nc3ccc(N4CCC(NC)CC4)nn3)nc21 [Example 334],800 nM
10,CC[C@H](C)n1c2cnccc2c2cnc(Nc3ccc(N4CCC(NC)CC4)cn3)nc21 [Example 335],1630 nM
11,CC1(C)CN(c2ccc(Nc3ncc4c5ccncc5n([C@@H]5CCNC5)c4n3)nc2)CCN1 [Example 338],302 nM
12,C[C@H]1CN(c2ccc(Nc3ncc4c5ccncc5n([C@@H]5CCNC5)c4n3)nc2)CCN1 [Example 339],300 nM
13,CNC1CCN(c2ccc(Nc3ncc4c5ccncc5n([C@@H]5CCNC5)c4n3)nc2)CC1 [Example 340],370 nM
14,C[C@H]1CN(c2ccc(Nc3ncc4c5ccncc5n([C@H]5CCC[C@H]5O)c4n3)nc2)CCN1 [Example 359],71 nM
15,O[C@@H]1CCC[C@@H]1n1c2cnccc2c2cnc(Nc3ccc(N4CCNCC4)nn3)nc21 [Example 362],162 nM
16,C[C@H]1CN(c2ccc(Nc3ncc4c5ccncc5n([C@H]5CCC[C@H]5O)c4n3)nn2)CCN1 [Example 363],211 nM

row,Structure (SMILES),IC50
1,CNC1CCN(c2ccc(Nc3ncc4c5ccncc5n([C@H]5CCC[C@H]5O)c4n3)nn2)CC1 [Example 364],258 nM
2,CC1(C)CN(c2ccc(Nc3ncc4c5ccncc5n([C@H]5CCC[C@H]5O)c4n3)nn2)CCN1 [Example 365],159 nM
3,O[C@@H]1CCN(c2ccc(Nc3ncc4c5ccncc5n([C@H]5CCC[C@H]5O)c4n3)nn2)C1 [Example 366],330 nM
4,CNC1CCN(c2ccc(Nc3ncc4c5ccncc5n([C@@H](C)CO)c4n3)nc2)CC1 [Example 367],350 nM
5,C[C@@H](CO)n1c2cnccc2c2cnc(Nc3ccc(N4CC[C@@H](O)C4)cn3)nc21 [Example 368],284 nM
6,C[C@@H](CO)n1c2cnccc2c2cnc(Nc3ccc(N4CCC(N(C)C)CC4)cn3)nc21 [Example 370],161 nM
7,O[C@@H]1CCN(c2ccc(Nc3ncc4c5ccncc5n([C@H]5CCC[C@H]5O)c4n3)nc2)C1 [Example 371],123 nM
8,C[C@@H](CO)n1c2cnccc2c2cnc(Nc3ccc(N4CCC(N(C)C)CC4)nn3)nc21 [Example 372],129 nM
9,C[C@@H](CO)n1c2cnccc2c2cnc(Nc3ccc(N4CC[C@@H](O)C4)nn3)nc21 [Example 374],86 nM
10,C[C@H]1CN(c2ccc(Nc3ncc4c5ccncc5n([C@@H](C)CO)c4n3)nn2)CCN1 [Example 377],73 nM
11,C[C@@H](CO)n1c2cnccc2c2cnc(Nc3ccc(N4CCNC(C)(C)C4)cn3)nc21 [Example 378],85 nM
12,CNC1CCN(c2ccc(Nc3ncc4c5ccncc5n([C@H](C)CO)c4n3)nc2)CC1 [Example 380],261 nM
13,C[C@H](CO)n1c2cnccc2c2cnc(Nc3ccc(N4CCN[C@@H](C)C4)cn3)nc21 [Example 381],2000 nM
14,C[C@H](CO)n1c2cnccc2c2cnc(Nc3ccc(N4CC[C@@H](O)C4)cn3)nc21 [Example 382],152 nM
15,C[C@H](CO)n1c2cnccc2c2cnc(Nc3ccc(N4CCNCC4)nn3)nc21 [Example 384],143 nM

# The next molecules have a lower IC50 than those just listed; values first:
row,IC50,Structure (SMILES)
1,66 nM,CC1(C)CN(c2ccc(Nc3ncc4c5ccncc5n([C@H]5CCC[C@H]5O)c4n3)nc2)CCN1 [Example 360]
2,62 nM,C[C@H](CO)n1c2cnccc2c2cnc(Nc3ccc(N4CCNC(C)(C)C4)cn3)nc21 [Example 383]
3,51 nM,CC[C@H](C)n1c2cnccc2c2cnc(Nc3ccc(N4CCNC(C)(C)C4)cn3)nc21 [Example 328]
4,50 nM,C[C@H](CO)n1c2cnccc2c2cnc(Nc3ccc(N4CCC(N(C)C)CC4)cn3)nc21 [Example 376]
5,45 nM,CNC1CCN(c2ccc(Nc3ncc4c5ccncc5n([C@@H](C)CO)c4n3)nn2)CC1 [Example 373]
6,40 nM,C[C@H](CO)n1c2cnccc2c2cnc(Nc3ccc(N4CCNCC4)cn3)nc21 [Example 375]
7,22 nM,CC[C@H](C)n1c2cnccc2c2cnc(Nc3ccc(N4CC[C@@H](O)C4)nn3)nc21 [Example 337]
8,16 nM,CC[C@H](C)n1c2cnccc2c2cnc(Nc3ccc(N4CCNC(C)(C)C4)nn3)nc21 [Example 332]
9,11 nM,"CCN(CC)C1CCN(c2ccc(Nc3ncc4c5ccnnc5n(C5CCCC5)c4n3)nc2)CC1 [Example 281, 9-Cyclopentyl-N-(5-(4-(diethylamino)-1-piperidinyl)-2-pyridinyl)-9H-pyrimido[5′,4′:4,5]pyrrolo[2,3-c]pyridazin-7-amine]"
10,11 nM,"CCN(CC)C1CCN(c2ccc(Nc3ncc4c5ccnc(OC)c5n(C5CCCC5)c4n3)nn2)CC1 [Example 283, 9-cyclopentyl-N-(6-(4-(diethylamino)-1-piperidinyl)-3-pyridazinyl)-8-methoxy-9H-pyrido[4′,3′:4,5]pyrrolo[2,3-d]pyrimidin-2-amine]"
11,11 nM,C[C@@H](CO)n1c2cnccc2c2cnc(Nc3ccc(N4CCNC(C)(C)C4)nn3)nc21 [Example 379]
12,5 nM,"CCN(CC)C1CCN(c2ccc(Nc3ncc4c5ccnc(O)c5n(C5CCCC5)c4n3)nc2)CC1 [Example 284, 9-Cyclopentyl-2-((5-(4-(diethylamino)-1-piperidinyl)-2-pyridinyl)amino)-9H-pyrido[4′,3′:4,5]pyrrolo[2,3-d]pyrimidin-8-ol]"
13,3.9 nM,CN(CCO)c1ccc(Nc2ncc3c4ccncc4n(C4CCCC4)c3n2)nn1 [Example 291]
14,2.8 nM,"CCN(CC)C1CCN(c2ccc(Nc3ncc4c5ccnc(O)c5n(C5CCCC5)c4n3)nn2)CC1 [Example 282, 9-cyclopentyl-2-((6-(4-(diethylamino)-1-piperidinyl)-3-pyridazinyl)amino)-9H-pyrido[4′,3′:4,5]pyrrolo[2,3-d]pyrimidin-8-ol]"
15,2.6 nM,"CCN(CC)C1CCN(c2ccc(Nc3ncc4c5ccnc(OC)c5n(C5CCCC5)c4n3)nc2)CC1 [Example 285, 9-cyclopentyl-N-(5-(4-(diethylamino)-1-piperidinyl)-2-pyridinyl)-8-methoxy-9H-pyrido[4′,3′:4,5]pyrrolo[2,3-d]pyrimidin-2-amine]"
16,2 nM,CC[C@H](C)n1c2cnccc2c2cnc(Nc3ccc(N4CC[C@@H](O)C4)cn3)nc21 [Example 336]

# — US8841312B2, “Fused pyridine, pyrimidine and triazine compounds as cell cycle inhibitors” (Amgen Inc., priority 2007, dated 2014)
